Values of other authors, collected in patent US7863277B1, “Topical antipsychotic composition” (Medcara, L.L.C., priority 2005, dated 2011).

Conditions: decreasing absorption when not taken concurrently with food

Q: With O=C1Cc2cc(CCN3CCN(c4nsc5ccccc45)CC3)c(Cl)cc2N1 [ziprasidone, 5-(2-(4-(1,2-benzisothiazol-3-yl)piperazinyl)ethyl)-6-chloro-1,3-dihydro-2(1H)-indole-2-one] as the molecule, how does the Oral bioavailability read?
A: about 60%
